Values quoted from earlier work in patent US20120074308A1, “IMMUNOSUPPRESSANT MONITORING BY MALDI MASS SPECTROMETRY” (priority 2010, published 2012).

Settings: for therapeutic window: immunosuppressants currently used for transplant patients, level in blood; for narrow therapeutic range: levels in whole blood

Compound	therapeutic window [ng/mL]	narrow therapeutic range [ng/mL]	increased levels associated with high toxicity (thrombocytopenia, hyperlipidemia, high serum creatinine levels) (blood level)
CO[C@H]1C[C@@H]2CC[C@@H](C)[C@@](O)(O2)C(=O)C(=O)N2CCCC[C@H]2C(=O)O[C@H]([C@H](C)C[C@@H]2CC[C@@H](OCCO)[C@H](OC)C2)CC(=O)[C@H](C)/C=C(\C)[C@@H](O)[C@@H](OC)C(=O)[C@H](C)C[C@H](C)/C=C/C=C/C=C/1C [Everolimus]	3 to 8	3 to 8	
CO[C@H]1C[C@@H]2CC[C@@H](C)[C@@](O)(O2)C(=O)C(=O)N2CCCC[C@H]2C(=O)O[C@H]([C@H](C)C[C@@H]2CC[C@@H](O)[C@H](OC)C2)CC(=O)[C@H](C)/C=C(\C)[C@@H](O)[C@@H](OC)C(=O)[C@H](C)C[C@H](C)/C=C/C=C/C=C/1C [Sirolimus]	4 to 12	4 to 12	above 15 nanogram per milliliter
C=CC[C@@H]1/C=C(\C)C[C@H](C)C[C@H](OC)[C@H]2O[C@@](O)(C(=O)C(=O)N3CCCC[C@H]3C(=O)O[C@H](/C(C)=C/[C@@H]3CC[C@@H](O)[C@H](OC)C3)[C@H](C)[C@@H](O)CC1=O)[C@H](C)C[C@@H]2OC [Tacrolimus]	4 to 20	4 to 20	
